Assay [1] relates to PCSK9. In words: ELISA, mature PCSK9 secreted by HepG2 cells. The assay is classed as cell-based, human. On the technique in general: In an ELISA, binding on a coated surface is turned into a signal by an enzyme label.
Assay [2] has as its system PCSK9. In words: Western blot, intracellular PCSK9 in HepG2 cells. The assay is classed as cell-based, human. Particulars: pravastatin 1.0 µM, 24 h, versus control; p < 0.0001; mean ± S.D., three experiments in duplicate. The method, then: (§1) Immunoblotting experiments were performed using an optimized protocol. Details are available in the Supplementary Materials. […]
(§2) 2.7. Western Blot Analysis
(§3) Immunoblotting experiments were performed using optimized protocol […]
(§4) µM of H3 for 24 h. After each treatment, the supernatants were collected and stored at -20 °C; cells were scraped in 40 µL ice-cold lysis buffer (RIPA buffer + inhibitor cocktail + 1:100 PMSF + 1:100 Na-orthovanadate + 1:1000 β-mercaptoethanol) and transferred in ice-cold microcentrifuge tubes. After centrifugation at 13,300 g for 15 min at 4 °C, the supernatants were recovered and transferred into new ice-cold tubes. […]
(§5) Cocktail) on ice for 20 min and then centrifuged 12000 rpm for 10 min at 4°C and the supernatant was collected (nucleus isolate). Total proteins were quantified […]
(§6) Sodium Dodecyl Sulfate-Polyacrylamide (SDS-PAGE) gel at 130 V for 45 min.
(§7) Subsequently, the gel was pre-equilibrated in H2O for 5 min at room temperature (RT) and transferred to a nitrocellulose membrane (Mini nitrocellulose Transfer Packs,) using a Trans-Blot Turbo at 1.3 A, 25 V for 7 min. Target proteins, on milk or BSA blocked membrane, were detected by primary antibodies as follows: anti-SREBP-2, anti-LDLR, anti-HMGCoAR, anti-PCSK9, anti HNF1-α, anti-p-HMGCoAR, anti-p-AMPK and anti-β-actin. […]
In general terms: Immunoblotting shows a protein as a band on a membrane.

For another assay, the system named is HNF1-α. In words: Western blot, HNF1-α in HepG2 cells. The assay is classed as cell-based, human. The note with it: pravastatin 1.0 µM, 24 h, versus control; p < 0.0001; mean ± S.D., three experiments in duplicate. On the procedure: as §1, §2, §3, §4, §5, §6, §7
The test system of assay [3] is HMGCoAR. In words: Western blot, HMGCoAR protein in HepG2 cells. Particulars: pravastatin 1.0 µM, 24 h, versus control; p < 0.01; mean ± S.D., three independent experiments in duplicate. The assay is classed as cell-based, human. The method, then:
as §1, §2, §3, §4, §5, §6, §7

The subject of the next assay is p-HMGCoAR. In words: Western blot, p-HMGCoAR (serine 872) in HepG2 cells. The assay is classed as cell-based, human. The note with it: pravastatin 1.0 µM, 24 h, versus control; p < 0.01; mean ± S.D., three independent experiments in duplicate. On the procedure:
as §1, §2, §3, §4, §5, §6, §7

For assay [4], the system named is LDLR. In words: Western blot, total LDLR in HepG2 cells. The assay is classed as cell-based, human. Particulars: pravastatin 1.0 µM, 24 h, versus control; p < 0.001; mean ± S.D., three independent experiments in duplicate. On the procedure:
as §1, §2, §3, §4, §5, §6, §7

In assay [5] the test system is LDLR. In words: In-Cell Western (ICW), LDLR localized on cellular membranes of HepG2 cells. The assay is classed as cell-based, human. The note with it: pravastatin 1.0 µM, 24 h, versus control, p < 0.0001, mean ± S.D., three experiments in triplicate.
Experimental: For the experiments, a total of 3 × 10^4 HepG2 cells/well were seeded in 96-well plates. The following day, the cells were washed with PBS and then starved overnight (O/N) in DMEM without FBS nor antibiotics.
HMGCoAR were provided in the HMGCoAR Assay Kit (Sigma Aldrich SRL, Milan, Italy). The experiments were carried out following the manufacturer instructions at 37 °C. In particular, each reaction (200 µL) was prepared adding the reagents in the following order: 1 X assay buffer, a 10–1000 µM doses of H3 or vehicle (C), the NADPH (4 µL), the substrate solution (12 µL), and finally the HMGCoAR (catalytic domain) (2 µL). Subsequently, the samples were mixed and the absorbance at 340 nm read by the microplate reader Synergy H1
In-Cell Western (ICW) Assay
For the experiments, a total of 3 X 10 4 HepG2 cells/well were seeded in 96-well plates. The following day, cells were washed with PBS and then starved overnight (O/N) in DMEM without FBS and antibiotics.
Subsequently, they were fixed in 4% paraformaldehyde for 20 min at room temperature (RT). […] The reaction was stopped with 2 M H2SO4 and then the absorbance at 450 nm was measured using the microplate reader Synergy H1 (Winooski, VT, USA). After the read, cells were stained by adding 1 X Janus Green stain, incubating for 5 min at RT. […]
In assay [6] the test system is AMPK. In words: Western blot, p-AMPK (threonine 172) in HepG2 cells. The assay is classed as cell-based, human. The note with it: pravastatin 1.0 µM, 24 h, versus control; p < 0.05; mean ± S.D., three independent experiments in duplicate. The method, then: as §1, §2, §3, §4, §5, §6, §7
The subject of assay [7] is HMGCoAR. More on the design: method as in 5 sources, ref 24 = [24]; PMID 2513368; doi:10.1016/S0022-2275(20)38255-9; 24. Mosley S.T. Kalinowski S.S. Schafer B.L. Tanaka R.D. Tissue-selective acute effects of inhibitors of 3-hydroxy-3-methylglutaryl coenzyme A reductase on cholesterol biosynthesis in lens J. Lipid Re ||| ref 32 = [32]; PMID 25690031; doi:10.3390/ijms16024150; 32. Soares R.A.M. Mendonça S. De Castro L.Í.A. Menezes A.C.C.C.C. Arêas J.A.G. Major Peptides from Amaranth (Amaranthus cruentus) Protein Inhibit HMG-CoA Reductase Activity Int. J. Mol. Sci. 2015 16 4 ||| ref 33 = [33]; doi:10.1016/j.jff.2015.02.021; 33. Lammi C. Zanoni C. Arnoldi A. […], […], and LPYP, three peptides from soy glycinin, modulate cholesterol metabolism in HepG2 cells through the activation of the LDLR-SREBP2 pathway J. Fu ||| ref 34 = [34]; PMID 26310992; doi:10.1021/acs.jafc.5b03497; 34. Lammi C. Zanoni C. Arnoldi A. Vistoli G. Two Peptides from Soy β-Conglycinin Induce a Hypocholesterolemic Effect in HepG2 Cells by a Statin-Like Mechanism: Comparative in Vitro and in Silico Model ||| ref 11, 12 = [11]; PMID 29096438; doi:10.1021/acs.jafc.7b03590; 11. Aiello G. Lammi C. Boschin G. Zanoni C. Arnoldi A. Exploration of Potentially Bioactive Peptides Generated from the Enzymatic Hydrolysis of Hempseed Proteins J. Agric. Food Chem. 2017 65 10174 101 || [12]; PMID 28931275; doi:10.1021/acs.jafc.7b02742; 12. Zanoni C. Aiello G. Arnoldi A. Lammi C. Hempseed Peptides Exert Hypocholesterolemic Effects with a Statin-Like Mechanism J. Agric. Food Chem. 2017 65 8829 8838 10.1021/acs.jafc.7b02742 28931275. The note with it: cited from earlier work. The source says:
Th ... || CVD is a multifactorial pathology in which oxidative and inflammatory status as well as hypercholesterolemia are among the main risk factors.

A further assay relates to SREBP-2. In words: Western blot, mature and precursor SREBP-2 in HepG2 cells. The assay is classed as cell-based, human. Particulars: pravastatin 1.0 µM, 24 h, versus untreated. On the procedure: as §1, §2, §3
µM of H3 for 24 h. After each treatment, the supernatants were collected and stored at -20 °C; cells were scraped in 40 µL ice-cold lysis buffer (RIPA buffer + inhibitor cocktail + 1:100 PMSF + 1:100 Na-orthovanadate + 1:1000 β-mercaptoethanol) and transferred in ice-cold microcentrifuge tubes. After centrifugation at 13,300 g for 15 min at 4 °C, the supernatants were recovered and transferred into new ice-cold tubes. For the mature SREBP-2 nuclear […]
for at 37 °C under 5% CO2 atmosphere for 24h. Therefore, cells were collected with PBS ice-cold and centrifuged 1500 rmp for 5 min at 4°C. The pellet was incubated with 20 µL of Nuclei Isolation Buffer A (10 mM HEPES pH 7.9, 1.5 mM MgCl2, 10 mM KCl, 0.2 mM EDTA, 0.1% β-mercaptoethanol, 0.5 mM PMSF, 0.1 % NP-40, one cOmplete™ Mini, EDTA-free Protease Inhibitor Cocktail) on ice for 10 min and then centrifuged 12000 rpm for 10 min at 4°C. Subsequently, the pellet was incubated with 20 µL of Nuclei Isolation Buffer B (20 mM HEPES […]
0.5 mM PMSF, 0.42 M NaCl, one cOmplete™ Mini, EDTA-free Protease Inhibitor Cocktail) on ice for 20 min and then centrifuged 12000 rpm for 10 min at 4°C and the supernatant was collected (nucleus isolate). Total proteins were quantified […]
as §7, with “anti-β-actin. Secondary antibodies conjugated with HRP and a chemiluminescent reagent were used to visualize target proteins and their signal was quantified using the Image Lab Software (Biorad, Hercules,” for “anti-β-actin.”

The test system of a further assay is HepG2 cells. In words: Fluorescent LDL uptake by HepG2 cells. The assay is classed as cell-based, human. The note with it: pravastatin 1.0 µM, 24 h, then LDL-DyLight 550 for 2 h at 37 °C, fluorescence, versus control; p < 0.0001; mean ± S.D., three experiments in triplicate. The method, then: treatment, the culture medium was replaced with 50 µL/well LDL-DyLight™ 550 working solution (Cayman Chemical Company, Ann Arbor, MI, USA) prepared in DMEM without FBS and antibiotics. The cells were additionally incubated for 2 h at 37 °C and then the culture medium was aspirated and replaced with PBS (100 µL/well). The degree of LDL uptake was measured using the Synergy H1 fluorescent plate reader (Winooski, VT, USA) (excitation and […]

Assay [8] relates to AMPK. Particulars: cited from earlier work. An excerpt:
Furthermore, it is also known that statins are able to activate AMPK [44] with the consequence of a synergistic inhibition of HMGCoAR activity, its direct target. In agreement with these evidences, our results provide a clear indication that, similarly to statins, peptide H3 increases the phosphorylation level of AMPK at the Thr172 residue of the catalytic subunit, which in turn produces an inhibition of ...

Where [9] appears, read: from soybean glycinin hydrolysis with pepsin, read-out: IC50, HMGCoAR (soybean glycinin peptides).
Where [10] appears, read: LTFPGSAED from lupin protein, VGVL from amaranth protein, hydrolysis with pepsin, read-out: IC50, HMGCoAR (literature peptides).
The mark [11] stands for this setting: from soybean β-conglycinin, read-out: IC50, HMGCoAR (soybean β-conglycinin peptides).

Where two headings read alike, the source gives them in different places.

For `CC[C@H](C)C(=O)O[C@H]1C[C@H](O)C=C2C=C[C@H](C)[C@H](CC[C@@H](O)C[C@@H](O)CC(=O)O)[C@H]21` [pravastatin], in the assay with PCSK9 [1], the “release of PCSK9 (increase up to)” value came to 119.6 ± 1.18%. The “PCSK9 protein level (increase up to)” value in the assay with PCSK9 [2] is 118.8 ± 6.11%. Further, the “HNF1-α level (activation up to)” value with HNF1-α is 116.9 ± 3.21%. In the assay with HMGCoAR [3], this compound showed an HMGCoAR protein level of 129.3 ± 9.33%. Also, the “phosphorylation level of HMGCoAR (serine 872)” value in the assay with p-HMGCoAR is on record as 143.5 ± 4.64%. Also, in the assay with LDLR [4], the “total LDLR protein level” value is given as 140.8 ± 15.35%. In the assay with LDLR [5], the “LDLR protein level on cellular membrane” value was found to be 127.3 ± 14.31%. Besides, the “AMPK phosphorylation (threonine 172)” value with AMPK [6] stood at 122.7 ± 5.23%. In addition, in the assay with HMGCoAR [7] (read-out: IC50, HMGCoAR (literature value for pravastatin)), the IC50 (commonly the concentration at which inhibition is half-maximal) was 0.47 µM. For the same compound, the “precursor SREBP-2 (125 KDa) protein level” value with SREBP-2 (cytoplasmic fraction, p < 0.05, Figure S2) is recorded as 140.8 ± 9.0%. In addition, in the assay with SREBP-2 (nuclear fraction, p < 0.0001, mean ± S.D., three independent experiments in duplicate), the “mature nuclear SREBP-2 (65 KDa) protein level” value worked out at 152.3 ± 8.2%. Also, the “total mature SREBP-2 (65 KDa) protein level” value with SREBP-2 (total lysate, p < 0.001, mean ± S.D., three independent experiments in duplicate) turned out to be 134.9 ± 17.3%. Moreover, the LDL uptake in the assay with HepG2 cells was found to be 226.9 ± 11.05%.
Regarding “IAVPGEVA [peptide from soybean glycinin hydrolysis with pepsin]”, the “mechanism of HMGCoAR inhibition (AMPK phosphorylation)” value (shortened to “mechanism of HMGCoAR inhibition”) in the assay with AMPK [8] (soybean peptides) is “share the same mechanism of HMGCoAR inhibition”. Further, the IC50 with HMGCoAR [7] (setting [9]) was 222 µM.
Take “IAVPTGVA [peptide from soybean glycinin hydrolysis with pepsin]”: the “mechanism of HMGCoAR inhibition” value with AMPK [8] (soybean peptides) was “share the same mechanism of HMGCoAR inhibition”. The IC50 in the assay with HMGCoAR [7] (setting [9]) was 247 µM.
As for “LILPKHSDAD [peptide from lupin protein hydrolysis with pepsin]”, in the assay on AMPK [8] (lupin peptides), the “mechanism of HMGCoAR inhibition” value is “share the same mechanism of HMGCoAR inhibition”.
In the case of “LPYP [peptide from soybean glycinin hydrolysis with pepsin]”, in the assay with AMPK [8] (soybean peptides), the “mechanism of HMGCoAR inhibition” value is “share the same mechanism of HMGCoAR inhibition”. In the assay on HMGCoAR [7] (setting [9]), the IC50 was 300 µM.
With “LTFPGSAED [peptide from lupin protein hydrolysis with pepsin]”, in the assay with AMPK [8] (lupin peptides), the “mechanism of HMGCoAR inhibition” value is reported as “share the same mechanism of HMGCoAR inhibition”. Moreover, the IC50 with HMGCoAR [7] (setting [10]) is 68.4 µM.
As for “VGVL [peptide from amaranth protein hydrolysis with pepsin]”, in the assay on HMGCoAR [7] (setting [10]), the IC50 was 50 µM.
For the compound “YVVNPDNDEN [peptide from soybean β-conglycinin]”, the IC50 with HMGCoAR [7] (setting [11]) is 150 µM.
As to “YVVNPDNNEN [peptide from soybean β-conglycinin]”, the IC50 in the assay on HMGCoAR [7] (setting [11]) is 200 µM.
